Key:
human NK2 receptor = target: T1, human NK2 receptor (Homo sapiens, UniProt P21452); assay: Neurokinin A (NKA) Receptor Binding Assay (Test B); settings: human NK2 receptor in MEL cells
T1 construct: expressed in transfected cells; host or cells: Mouse Erythroleukemia (MEL) cells
T1 sequence (P21452 1-398): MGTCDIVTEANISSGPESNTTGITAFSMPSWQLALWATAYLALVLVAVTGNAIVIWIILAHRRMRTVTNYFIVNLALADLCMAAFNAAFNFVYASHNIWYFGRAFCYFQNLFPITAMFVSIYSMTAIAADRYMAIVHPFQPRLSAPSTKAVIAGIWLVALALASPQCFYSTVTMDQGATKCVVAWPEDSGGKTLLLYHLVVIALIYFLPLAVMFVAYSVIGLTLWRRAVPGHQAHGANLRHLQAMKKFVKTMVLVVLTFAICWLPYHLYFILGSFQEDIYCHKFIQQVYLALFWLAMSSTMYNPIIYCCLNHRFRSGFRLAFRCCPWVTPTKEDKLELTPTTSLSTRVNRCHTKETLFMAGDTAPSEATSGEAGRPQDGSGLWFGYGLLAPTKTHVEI
Excerpt: Neurokinin A (NKA) Receptor Binding Assay (Test B)
(§1) The selectivity of a Compound for binding at the NK1 and the NK2 receptors may be shown by determining its binding at other receptors using standard assays, for example, one using a tritiated derivative of NKB in a tissue preparation selective for NK3 receptors.

human NK1 receptor = target: T2, human NK1 receptor (Homo sapiens, UniProt P25103); assay: SP Receptor Binding Assay (Test A); settings: human NK1 receptor in MEL cells
T2 construct: expressed in transfected cells; host or cells: Mouse Erythroleukemia (MEL) cells
Excerpt: SP Receptor Binding Assay (Test A)
The human NK1 receptor was isolated and characterized as described in: B. Hopkins, et al. "Isolation and characterization of the human lung NK1 receptor cDNA" Biochem. Biophys. Res. Comm., 1991, 180, 1110-1117; and the NK1 receptor was expressed in Mouse Erythroleukemia (MEL) cells using a procedure similar to that described in Test B below.
as §1

T2 sequence (P25103 whole entry): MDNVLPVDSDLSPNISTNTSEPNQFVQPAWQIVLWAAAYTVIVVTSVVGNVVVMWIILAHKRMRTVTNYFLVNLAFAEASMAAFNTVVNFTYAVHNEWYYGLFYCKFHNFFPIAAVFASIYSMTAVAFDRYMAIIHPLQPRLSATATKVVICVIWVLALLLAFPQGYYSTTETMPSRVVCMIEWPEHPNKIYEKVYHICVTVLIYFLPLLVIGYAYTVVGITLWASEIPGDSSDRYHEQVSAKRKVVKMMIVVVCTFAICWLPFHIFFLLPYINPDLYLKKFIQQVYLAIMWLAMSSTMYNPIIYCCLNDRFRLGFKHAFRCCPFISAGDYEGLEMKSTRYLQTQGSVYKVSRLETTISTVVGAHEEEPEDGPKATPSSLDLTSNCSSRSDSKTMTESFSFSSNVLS

Structure (SMILES): CC(=O)NC1(c2ccccc2)CCN(CCC(OC(=O)NCc2ccccc2)c2ccc(Cl)c(Cl)c2)CC1 (centres unmarked) [Example 1, N-Benzyl-3-(4-acetamido4-phenylpiperidino)-1-(3,4-dichlorophenyl)propyl carbamate]
- Ki (human NK2 receptor): 0.00681 µM
- Ki (human NK1 receptor): 0.163 µM

Source: patent publication US6090824A, “Therapeutic neurokinin receptor antagonist compounds” (Zeneca Limited, priority 1995, dated 2000)
